This is an account of results in patent US11123338B2, “C-met modulator pharmaceutical compositions” (Exelixis, Inc., priority 2010, dated 2021).

Data set [1] is described as follows: Water solubility of free base and salts from the salt screen. The following applies: for Solubility (remark in words): salt screen.
Procedure: The water solubility of the various salts was determined using 10 mg solids per mL water.
A short description of data set [2]: Moisture uptake / hygroscopicity (moisture vapor isotherm). Format: physicochemical. The conditions noted are these: for Hygroscopicity (remark in words): salt screen summary table. On the procedure: Moisture sorption isotherms were collected in a VTI SGA-100 Symmetric Vapor Analyzer using approximately 10 mg of sample. The sample was dried at 60° C. until the loss rate of less than or equal to 0.0005 weight percent per minute was obtained for 10 minutes. […] Equilibration at each RH was reached when the rate of less than or equal to 0.0003 weight percent per minute for 35 minutes was achieved, or at a maximum of 600 minutes.

Data set [3] in a line: Solid-state stability on exposure to high humidity and high temperature. Format: physicochemical.
Data set [4] can be described thus: Thermal stability by DSC/TGA. Format: physicochemical.
Procedure: The sample (about 10-30 mg) was placed in a previously tared platinum pan. The weight of the sample was measured accurately and recorded to a thousand of a milligram. The furnace was purged with nitrogen gas at 100 mL/min. Data were collected between room temperature and 300° C. at 10° C./min heating rate.
The sample (about 2-6 mg) was weighed in an aluminum pan, accurately recorded to a hundredth of a milligram, and transferred to the DSC. The instrument was purged with nitrogen gas at 50 mL/min. Data were collected between room temperature and 300° C. at a 10° C./min heating rate.
Data set [5] in a line: Storage stability under controlled temperature / relative humidity. It is filed as physicochemical.
[6] abbreviates: water solubility, 10 mg solids per mL water.
The mark [7] stands for this setting: water, thermodynamic from solid.

Regarding Tosylate, the solubility in data set [1] (setting [6]) turned out to be 7 µg/mL. In addition, the “Solubility (remark in words)” value in data set [1] (water solubility) is on record as “Crystalline salt, low solubility”.
In the case of Phosphate, the “Weight gain due to absorption of H2O” value in data set [2] (highest among the salts tested) was found to be 8%. The “Hygroscopicity (remark in words)” value in data set [2] is “Crystalline but Hygroscopic”. Further, the solubility in data set [1] (setting [6]) turned out to be 26 µg/mL.
As to `O=C(O)[C@H](O)[C@@H](O)C(=O)O` [L-Tartrate], in data set [2], the “Hygroscopicity (remark in words)” value is listed as “Hygroscopic”.
`COc1cc2nccc(Oc3ccc(NC(=O)C4(C(=O)Nc5ccc(F)cc5)CC4)cc3)c2cc1OC` [Free base, N-[4-[(6,7-Dimethoxy-4-quinolinyl)oxy]phenyl]-N′-(4-fluorophenyl)-1,1-cyclopropanedicarboxamide]: the “Solubility (remark in words)” value in data set [1] (water solubility) is given as “very low solubility”. The solubility in data set [1] (setting [7]) is under 1 µg/mL.
`Cl` [Chloride]: the “Moisture sensitivity (phase behaviour on exposure)” value in data set [3] (high humidity (75 percent RH) and high temperature (40° C.)) was “changing phase”. Besides, the “Hygroscopicity (remark in words)” value in data set [2] is “Crystalline but Hygroscopic; possible”.
Take `COc1cc2nccc(Oc3ccc(NC(=O)C4(C(=O)Nc5ccc(F)cc5)CC4)cc3)c2cc1OC.O=C(O)C[C@@H](O)C(=O)O` [L-Malate, cyclopropane-1,1-dicarboxylic acid [4-(6,7-dimethoxy-quinoline-4-yloxy)-phenyl]-amide (4-fluoro-phenyl)-amide, (L) malate salt]: the “Solid state phase and degree of crystallinity after exposure” value in data set [3] (75 percent RH at 40° C. for 1 week) is recorded as “remained unchanged”. Moreover, in data set [2] (at 90 percent RH), the “Amount of water taken up” value is listed as “about 0.60 weight percent”. Further, the “Hygroscopicity (remark in words)” value in data set [2] was “Crystalline; non-Hygroscopic with no”. The “Stable up to (DSC/TGA)” value in data set [4] is “up to 185 °C”. The “Solubility (remark in words)” value in data set [1] (water solubility, listed as L-malate salt, malate salt) was “sufficient solubility”. In addition, the solubility in data set [1] (setting [7]) stood at 59 µg/mL. For the same compound, the “Change in assay, purity, moisture, and dissolution” value in data set [5] (25° C./60 percent relative humidity (RH)) and in data set [5] (40° C./60 percent RH) was “no change” throughout. Moreover, the “Chemical/physical stability (remark in words)” value in data set [5] (salt screen summary table) is reported as “chemical/physical stability”.
